Consider one compound from patent US7820678B2, “Sodium channel blockers” (Parion Sciences, Inc., priority 2003, dated 2010).

With `CS(=O)(=O)N(c1ccc(CCCCNC(=N)NC(=O)c2nc(Cl)c(N)nc2N)cc1)S(C)(=O)=O` [Example 4, N-(3,5-Diamino-6-chloropyrazine-2-carbonyl)-N′-[4-(4-bis(methanesulfonyl)aminophenyl)butyl]guanidine], the melting point was 174 to 176 °C (dec.).
